From US8785436B2, “1,3-oxazines as BACE 1 and/or BACE2 inhibitors” (Hoffmann-La Roche Inc., priority 2011, dated 2014) come the findings set out here.

In assay [1] the target is T1, BACE1 (Homo sapiens, UniProt P56817).
T1 construct: Human HEK293 cells which are stably transfected with a vector expressing a cDNA of the human APP wt gene (APP695); endogenous in cells; host or cells: HEK293 cells stably expressing human APP695 wt
Nature of the assay: Cellular Aβ-lowering assay a) (Aβ40 ELISA, HEK293 APP cells). In kind it is cell-based. Particulars: cellular assay a): HEK293 APP695 cells, 18-20 hrs incubation, read-out: BACE1 cell act. Aβ40 IC50. The method, then:
Cellular Aβ-Lowering Assay:
a) Human HEK293 cells which are stably transfected with a vector expressing a cDNA of the human APP wt gene (APP695) were used to assess the potency of the compounds in a cellular assay. The cells were seeded in 96-well microtiter plates in cell culture medium (Iscove, plus 10% (v/v) fetal bovine serum, glutamine, penicillin/streptomycin) to about 80% confluence and the compounds were added at a 10× concentration in 1/10 volume of medium without FCS containing 8% DMSO (final concentration of DMSO was kept at 0.8% v/v). After 18-20 hrs incubation at 37° C. and 5% CO2 in a humidified incubator the culture supernatant was harvested for the determination of Aβ40 concentrations. 96 well ELISA plates (e.g., Nunc MaxiSorb) were coated with monoclonal antibody which specifically recognize the C-terminal end of Aβ40 (Brockhaus et al., NeuroReport 9, 1481-1486; 1998). After blocking of non-specific binding sites with e.g. 1% BSA and washing, the culture supernatants were added in suitable dilutions together with a horseradish peroxidase-coupled Aβ detection antibody (e.g., antibody 4G8, Senetek, Maryland Heights, Mo.) and incubated for 5 to 7 hrs. Subsequently the wells of the microtiter plate were washed extensively with Tris-buffered saline containing 0.05% Tween 20 and the assay was developed with tetramethylbenzidine/H2O2 in citric acid buffer. After stopping the reaction with one volume 1 NH2SO4 the reaction was measured in an ELISA reader at 450 nm wavelength. The concentrations of Aβ in the culture supernatants were calculated from a standard curve obtained with known amounts of pure Aβ peptide.
On the technique in general: An ELISA detects its analyte on a solid surface through an enzyme-linked reagent.

The target in assay [2] is T2, BACE2 (Rattus norvegicus, UniProt Q6IE75).
T2 construct: endogenous cellular BACE2 in the Ins1e rat cell line; endogenous in cells; host or cells: INS-TMEM27 (INS1e-derived rat cell line with TetOn-inducible full-length hTMEM27)
T2 sequence (Q6IE75 63-514): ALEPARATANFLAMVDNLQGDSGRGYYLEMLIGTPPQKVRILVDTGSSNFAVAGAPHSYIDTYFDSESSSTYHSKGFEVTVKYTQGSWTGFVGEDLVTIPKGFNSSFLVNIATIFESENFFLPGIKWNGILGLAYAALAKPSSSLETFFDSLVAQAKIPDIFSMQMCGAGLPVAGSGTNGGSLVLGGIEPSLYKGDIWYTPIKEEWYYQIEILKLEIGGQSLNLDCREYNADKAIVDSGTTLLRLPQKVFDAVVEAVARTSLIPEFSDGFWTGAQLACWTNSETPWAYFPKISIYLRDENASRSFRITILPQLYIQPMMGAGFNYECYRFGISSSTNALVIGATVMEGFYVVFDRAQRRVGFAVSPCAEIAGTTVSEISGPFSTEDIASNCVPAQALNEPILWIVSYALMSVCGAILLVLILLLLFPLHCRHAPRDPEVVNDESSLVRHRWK
Description: BACE inhibition by measuring cellular TMEM27 cleavage (INS-TMEM27 cells, ELISA). The settings on record: INS-TMEM27 (Ins1e rat) cells, shed human TMEM27 by ELISA; read-out: BACE2 cell act. IC50. The class given is cell-based. From the text:
Assay for BACE Inhibition by Measuring Cellular TMEM27 Cleavage:
The assay uses the principle of inhibition of human TMEM27 cleavage by endogenous cellular BACE2 in the Ins1e rat cell line and shedding from the cell surface into the culture medium, followed by detection in an ELISA assay Inhibition of BACE2 prevents the cleavage and shedding in a dose-dependent manner.
The stable cell line “INS-TMEM27” represents an INS1e-derived cell line with inducible expression (using the TetOn system) of full-length hTMEM27 in a doxycycline-dependent manner. The cells are cultured throughout the experiment in RPMI1640+Glutamax (Invitrogen) Penicillin/Streptomycin, 10% Fetal bovine serum, […], […], 100 micrograms/ml G418 and 100 microgram/ml hygromycin and are grown inadherent culture at 37° C. in a standard CO2 cell culture incubator.
INS-TMEM27 cells are seeded in 96-well plates. After 2 days in culture, BACE2 inhibitor is added in a range of concentrations as required by the assay and after a further two hours, doxycycline is added to a final concentration of 500 ng/ml. The cells are incubated for a further 46 hours and the supernatant harvested for detection of shed TMEM27.
An ELISA assay (using a pair of mouse anti-human-TMEM27 antibodies, raised against the extracellular domain of TMEM27) is used for detection of TMEM27 in the culture medium. An EC50 for BACE2 inhibition is calculated using the ELISA readout for each inhibitor concentration with standard curve-fitting software such as XLFit for the Excel spreadsheet program.

T1 sequence (P56817 46-501): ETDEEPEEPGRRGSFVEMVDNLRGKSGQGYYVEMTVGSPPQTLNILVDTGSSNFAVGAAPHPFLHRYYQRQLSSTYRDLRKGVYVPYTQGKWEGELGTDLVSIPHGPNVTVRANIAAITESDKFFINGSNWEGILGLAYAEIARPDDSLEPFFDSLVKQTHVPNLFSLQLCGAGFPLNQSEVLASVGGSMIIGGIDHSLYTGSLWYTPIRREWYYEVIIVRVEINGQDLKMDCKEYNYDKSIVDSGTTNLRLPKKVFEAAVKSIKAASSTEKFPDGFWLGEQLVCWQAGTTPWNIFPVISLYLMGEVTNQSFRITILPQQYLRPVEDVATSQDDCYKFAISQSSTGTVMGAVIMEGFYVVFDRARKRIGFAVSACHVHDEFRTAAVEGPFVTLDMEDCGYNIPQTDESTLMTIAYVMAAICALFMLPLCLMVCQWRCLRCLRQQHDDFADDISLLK

On to `C[C@]1(c2cc(NCc3cccs3)ccc2F)N=C(N)OC[C@@H]1F` [Example 5, (4R,5R)-5-Fluoro-4-{2-fluoro-5-[(thiophen-2-ylmethyl)-amino]-phenyl}-4-methyl-5,6-dihydro-4H-[1,3]oxazin-2-ylamine], for which the 50% inhibitory concentration (IC50) in assay [1] turned out to be 540 nM; in assay [2], 1130 nM.

On to `C[C@]1(c2cc(NCc3ccccc3F)ccc2F)N=C(N)OC[C@@H]1F` [Example 7, (4R,5R)-5-Fluoro-4-[2-fluoro-5-(2-fluoro-benzylamino)-phenyl]-4-methyl-5,6-dihydro-4H-[1,3]oxazin-2-ylamine], for which the IC50 in assay [1] worked out at 780 nM; in assay [2], 240 nM.

Consider `C[C@]1(c2cc(NCC3CC3)ccc2F)N=C(N)OCC1(F)F` [Example 25, (R)-4-[5-(Cyclopropylmethyl-amino)-2-fluoro-phenyl]-5,5-difluoro-4-methyl-5,6-dihydro-4H-[1,3]oxazin-2-ylamine], for which the results for the IC50 in assay [1] and in assay [2] were 310 nM and 1650 nM, respectively.

Take `C[C@]1(c2cc(NCC3CC3)ccc2F)N=C(N)OC[C@@H]1F` [Example 8, (4R,5R)-4-[5-(Cyclopropylmethyl-amino)-2-fluoro-phenyl]-5-fluoro-4-methyl-5,6-dihydro-4H-[1,3]oxazin-2-ylamine]: the IC50 was found to be 22 nM in assay [1] and 164 nM in assay [2].

Regarding `C[C@]1(c2cc(NC3CCc4cc(Cl)cnc43)ccc2F)N=C(N)OCC1(F)F` (mixture of isomers) [Example 23, [3-((R)-2-Amino-5,5-difluoro-4-methyl-5,6-dihydro-4H-[1,3]oxazin-4-yl)-4-fluoro-phenyl]-((RS)-3-chloro-6,7-dihydro-5H-[1]pyrindin-7-yl)-amine], the figures for the 50% inhibitory concentration (IC50) in assay [1] and in assay [2] were 73 nM and 1700 nM, respectively.

Turning to `Cn1cc(Cl)c(CNc2ccc(F)c([C@@]3(C)N=C(N)OC[C@]3(C)F)c2)n1` [Example 13, (4R,5R)-4-{5-[(4-Chloro-1-methyl-1H-pyrazol-3-ylmethyl)-amino]-2-fluoro-phenyl}-5-fluoro-4,5-dimethyl-5,6-dihydro-4H-[1,3]oxazin-2-ylamine], the 50% inhibitory concentration (IC50) in assay [1] was 48 nM; in assay [2], 79 nM.

Consider `C[C@]1(F)COC(N)=N[C@]1(C)c1cc(NCc2nn(C(F)F)cc2Cl)ccc1F` [Example 12, (4R,5R)-4-{5-[(4-Chloro-1-difluoromethyl-1H-pyrazol-3-ylmethyl)-amino]-2-fluoro-phenyl}-5-fluoro-4,5-dimethyl-5,6-dihydro-4H-[1,3]oxazin-2-ylamine], for which the results for the half-inhibitory concentration (IC50) in assay [1] and in assay [2] were 39 nM and 588 nM, respectively.

Regarding `Cc1ccc(Cc2cc3cc(F)c([C@@]4(C)N=C(N)OCC4(F)F)cc3[nH]2)cc1` [Example 40, (R)-5,5-Difluoro-4-[5-fluoro-2-(4-methyl-benzyl)-3H-indol-6-yl]-4-methyl-5,6-dihydro-4H-[1,3]oxazin-2-ylamine], the IC50 in assay [1] was 6020 nM; in assay [2], 10900 nM.

In the case of `C[C@]1(c2cc(NC3CCc4cc(C#N)cnc43)ccc2F)N=C(N)OCC1(F)F` (mixture of isomers) [Example 22, (RS)-7-[3-((R)-2-Amino-5,5-difluoro-4-methyl-5,6-dihydro-4H-[1,3]oxazin-4-yl)-4-fluoro-phenylamino]-6,7-dihydro-5H-[1]pyrindine-3-carbonitrile], the IC50 is 11 nM in assay [1] and 753 nM in assay [2].

Consider `COc1ccccc1Nc1ccc(F)c([C@@]2(C)N=C(N)OC[C@@H]2F)c1` [Example 3, (4R,5R)-5-Fluoro-4-[2-fluoro-5-(2-methoxy-phenylamino)-phenyl]-4-methyl-5,6-dihydro-4H-[1,3]oxazin-2-ylamine], for which the half-maximal inhibitory concentration (IC50) is 310 nM in assay [1] and 970 nM in assay [2].

Regarding `CC1(C)OC(N)=N[C@](C)(c2cc(-c3cc(Cl)cc(Cl)c3)ccc2F)C1(F)F` [Example 51, (R)-4-(3′,5′-Dichloro-4-fluoro-biphenyl-3-yl)-5,5-difluoro-4,6,6-trimethyl-5,6-dihydro-4H-[1,3]oxazin-2-ylamine], the IC50 in assay [1] came out at 14500 nM; in assay [2], 3350 nM.

Turning to `CC1(C)OC(N)=N[C@](C)(c2cc(Nc3ccccc3C#N)ccc2F)C1(F)F` [Example 43, 2-[3-((R)-2-Amino-5,5-difluoro-4,6,6-trimethyl-5,6-dihydro-4H-[1,3]oxazin-4-yl)-4-fluoro-phenylamino]-benzonitrile], the IC50 is 1650 nM in assay [1] and 4140 nM in assay [2].

For the compound `C[C@]1(c2cc(NCc3nn(C(F)F)cc3Cl)ccc2F)N=C(N)OCC1(F)F` [Example 16, (R)-4-{5-[(4-Chloro-1-difluoromethyl-1H-pyrazol-3-ylmethyl)-amino]-2-fluoro-phenyl}-5,5-difluoro-4-methyl-5,6-dihydro-4H-[1,3]oxazin-2-ylamine], the IC50 worked out at 113 nM in assay [1] and 2520 nM in assay [2].

As for `C[C@@]1(c2cc(NCc3nn(C(F)F)cc3Cl)ccc2F)CCOC(N)=N1` [Example 1, (S)-4-{5-[(4-Chloro-1-difluoromethyl-1H-pyrazol-3-ylmethyl)-amino]-2-fluoro-phenyl}-4-methyl-5,6-dihydro-4H-[1,3]oxazin-2-ylamine], the IC50 in assay [1] was determined as 13 nM; in assay [2], 180 nM.

For `Cc1nc(C(C)Nc2ccc(F)c([C@@]3(C)N=C(N)OC[C@]3(C)F)c2)c(C(F)(F)F)o1` (mixture of isomers) [Example 14, (4R,5R)-5-Fluoro-4-{2-fluoro-5-[(RS)-1-(2-methyl-5-trifluoromethyl-oxazol-4-yl)-ethylamino]-phenyl}-4,5-dimethyl-5,6-dihydro-4H-[1,3]oxazin-2-ylamine], in assay [2], the half-inhibitory concentration (IC50) amounted to 68 nM.

On to `CC1(C)OC(N)=N[C@](C)(c2cc(NC3CCCC3)ccc2F)C1(F)F` [Example 48, (R)-4-(5-Cyclopentylamino-2-fluoro-phenyl)-5,5-difluoro-4,6,6-trimethyl-5,6-dihydro-4H-[1,3]oxazin-2-ylamine], for which the IC50 in assay [1] came out at 290 nM; in assay [2], 1420 nM.

As for `C[C@]1(c2cc(Nc3ccccc3OC(F)F)ccc2F)N=C(N)OC[C@@H]1F` [Example 4, (4R,5R)-4-[5-(2-Difluoromethoxy-phenylamino)-2-fluoro-phenyl]-5-fluoro-4-methyl-5,6-dihydro-4H-[1,3]oxazin-2-ylamine], the IC50 in assay [1] was determined as 370 nM; in assay [2], 1810 nM.

As to `COc1ccccc1Nc1ccc(F)c([C@@]2(C)N=C(N)OC(C)(C)C2(F)F)c1` [Example 44, (R)-5,5-Difluoro-4-[2-fluoro-5-(2-methoxy-phenylamino)-phenyl]-4,6,6-trimethyl-5,6-dihydro-4H-[1,3]oxazin-2-ylamine], the concentration for half-maximal inhibition (IC50) in assay [1] stood at 2090 nM; in assay [2], 2980 nM.

The term IC50 denotes the point on the concentration scale where inhibition reaches its midpoint.
